Assay results as given in patent US10961301B2, “Cell-penetrating anti-DNA antibodies and uses thereof inhibit DNA repair” (Yale University, priority 2011, dated 2021).

Tests used:
[1] = tested on: BRCA2-deficient PEO1 ovarian cancer cells; settings: 3 days after treatment; 3 nM doxorubicin, 10 μM 3E10
[2] = tested on: BRCA2-proficient PEO1 C4-2 ovarian cancer cells; settings: 3 days after treatment; 3 nM doxorubicin, 10 μM 3E10

COc1cccc2c1C(=O)c1c(O)c3c(c(O)c1C2=O)C[C@@](O)(C(=O)CO)C[C@@H]3O[C@H]1C[C@H](N)[C@H](O)[C@H](C)O1 [doxorubicin]
cell death, BRCA2-deficient cells [1]: not significantly toxic | cell death, BRCA2-proficient cells [2]: not significantly toxic
